Laboratory results published in PubChem BioAssay AID2742 (NMMLSC, 2010).
Several values for one entry are separate records, joined by “and”; a condition that tells them apart may be missing. Equal values may be shown once. Activity calls are given as the source filed them.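 Rule for the calls: active = fitted half-maximal concentration for changing background-corrected GFP signal at or below a set limit; inactive = the rest.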

Test: TOR pathway reporter MEP2-GFP, concentration series – S. cerevisiae, flow cytometry GFP, MLPCN hits, dose response (AID 2742);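 note: GFP tag reports level of MEP2 protein as a downstream target of TOR signalling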
Settings: S. cerevisiae MEP2-GFP strain, flow cytometry fluorescence, 3 h; at 33 µM (top of the series)

Structure (SMILES)	GFP fluorescence (kMESF), higher = increase
CCOc1ccc(N2C(=O)C(Cl)=C(Nc3ccccc3O)C2=O)cc1	4.31 kMESF (inactive)
CC1(C)OC(c2ccccc2)=C/C(=C/C=C2C(=O)NC(=S)NC2=O)O1	2.7 kMESF (inactive)
O=C(OCC(=O)N1CCN(C(=O)c2ccco2)CC1)c1cc(-c2ccccc2)nc2ccccc12	3.96 kMESF (inactive) and 2.66 kMESF (inactive)
O=C(Nc1nc(-c2ccccn2)cs1)C1COc2ccccc2O1 (centres undefined)	5.21 kMESF (inactive)
COc1ccc(C(c2c(C)[nH]n(C(N)=S)c2=O)C(C#N)C#N)cc1 (centres undefined)	4.93 kMESF (inactive)
Cc1ccccc1N1C(=O)C(Cl)=C(N2CCN(c3ccccc3)CC2)C1=O	2.9 kMESF (inactive)
COc1ccc(N=Nc2ccc(O)c3ncccc23)cc1	4.94 kMESF (inactive)
O=c1cc(CSc2ccc(Cl)cc2)nc(-c2ccccn2)[nH]1	3.46 kMESF (inactive)
O=C(c1ccc(C(=O)N2CCCc3ccccc32)s1)N1CCCc2ccccc21	3.28 kMESF (inactive)
CN(O)/C=c1/ccc2c(n1)C(=O)C=CC=2	3.88 kMESF (inactive)
CC(=O)SC(C[N+](=O)[O-])c1cn(C(C)=O)c2ccccc12 (centres undefined)	6.37 kMESF (inactive)
Cc1ccc(O)c(N=Nc2nccs2)c1	2.87 kMESF (inactive)
Cc1cc(=O)n2c3c(sc2n1)C(=O)N(Cc1ccccc1)C3=O	2.89 kMESF (inactive)
COc1cc(NC(=O)c2ccc(C)cc2)ccc1NC(=O)c1cc2ccccc2o1	2.3 kMESF (inactive)
Cc1ccc(/C=C/C(=O)c2ccc([N+](=O)[O-])o2)cc1	3.92 kMESF (inactive)
CCCCC(=O)NC(=S)NNC(=O)CCc1ccccc1	3.11 kMESF (inactive)
N/C(Cc1ccc(Cl)c(Cl)c1)=N\OC(=O)c1cccs1	3.66 kMESF (inactive)
COc1ccc(C(=O)NNC(=S)NC(=O)/C=C/c2cccs2)cc1	5.04 kMESF (inactive)
COc1ccccc1OCCCc1c(C)n[nH]c1C	3.47 kMESF (inactive)
N/C(Cc1ccc(Cl)cc1Cl)=N\OC(=O)c1ccccc1	2.82 kMESF (inactive)
O=C(Nc1cccc(C(F)(F)F)c1)Oc1ccc(Cl)c2cccnc12	2.78 kMESF (inactive)

Structure (SMILES)	GFP fluorescence (kMESF), higher = increase
CC(=O)CSc1ncnc2c1cnn2-c1ccccc1	2.5 kMESF (inactive)
COc1ccc(CCNC2=C(Cl)C(=O)N(CCc3ccccc3)C2=O)cc1OC	2.6 kMESF (inactive)
O=C1C=CC(=O)N1c1cccc(-c2ccccc2)c1	5.31 kMESF (inactive)
CCc1ccc(OCC(=O)NNC(=S)NC(=O)C2CC2)c(Br)c1	5.6 kMESF (inactive)
COc1ccc(/C=C2/C(=O)ON=C2c2ccccc2)cc1OC	4.51 kMESF (inactive)
O=C(c1ccccn1)c1conc1C(=O)c1ccc(Br)cc1	2.83 kMESF (inactive)
Cc1cc(C(=O)Nc2nc(-c3ccccn3)cs2)ccc1[N+](=O)[O-]	4.48 kMESF (inactive)
O=C(Oc1c(Cl)cc(Cl)c2cccnc12)c1cccs1	3.47 kMESF (inactive)
COc1ccc([C@@]2(C(C)C)ON(c3ccccc3C(F)(F)F)C2=O)cc1	3.06 kMESF (inactive)
C#CCOCCOCCOCCNc1nc(N2CCN(C(=O)CCCCCCCCCCNC(=O)[C@H](CCCCN)n3cc(CCO)nn3)CC2)nc(N2CCN(C(=O)CCCCCCCCCCNC(=O)[C@H](CCCCN)n3cc(C[C@@H](C)CC)nn3)CC2)n1	3.23 kMESF (inactive)
COc1ccc(N2C(=O)C(Cl)=C(NCc3ccccc3)C2=O)cc1	3.91 kMESF (inactive)
O=C(O)/C=C/C(=O)c1ccc2c(c1)CCc1ccccc1-2	4.6 kMESF (inactive)
COc1ccc(NC(=O)/C(Cl)=C(/Cl)S(=O)Cc2ccccc2)cn1 (centres undefined)	4.75 kMESF (inactive)
O=C1Oc2ccccc2C(=O)/C1=C/c1ccccc1O	5.39 kMESF (inactive)
O=[N+]([O-])c1ccc(-c2cn3nc(-c4ccccc4)c(-c4ccccc4)nc3n2)cc1	4.08 kMESF (inactive)
O=C(Oc1c(Cl)cc(Cl)c2cccnc12)c1ccco1	9.81 kMESF (inactive)
O=C1CCN(S(=O)(=O)c2ccccc2)CCN1CCOCc1ccc(F)cc1	1.97 kMESF (inactive)
Cc1ccc2c(nc3s/c(=C\c4ccc(-c5ccccc5C(=O)O)o4)c(=O)n32)c1C	25.5 kMESF (inactive)
Nc1c(C(=O)c2cccs2)sc2nsc(SCCN3CCCCC3)c12	15.6 kMESF (inactive)
O=C(/C=C/c1ccccc1)c1cc(Br)ccc(=O)c1O	-11.3 kMESF (inactive)
CC(=O)Oc1ccc(N2C(=O)C3C4C=CC(CO)(O4)C3C2=O)cc1 (centres undefined)	3.1 kMESF (inactive)

Structure (SMILES)	GFP fluorescence (kMESF), higher = increase
N/C(=N\OC(=O)c1cc(Br)ccc1Cl)c1ccccn1	5.31 kMESF (inactive)
N/C(=N\OC(=O)c1ccccc1Cl)c1ccc(Cl)cc1	3.91 kMESF (inactive)
CN(C)/C=C/C(=O)c1ccc(-c2ccc(Cl)cc2Cl)o1	2 kMESF (inactive)
COc1ccc(OC)c(S(=O)(=O)ON2C(=O)c3ccccc3C2=O)c1	-8.29 kMESF (inactive)
COc1cc(/C=C2\CC/C(=C\c3cc(OC)c(O)c(OC)c3)C2=O)cc(OC)c1O	3.25 kMESF (inactive)
C=CCN1C(=O)/C(=C/c2cccs2)C(=O)NC1=S	3.81 kMESF (inactive)
O=C(c1ccc([N+](=O)[O-])o1)N1CCN(c2nc3c(F)cc(F)cc3s2)CC1	-3.51 kMESF (inactive)
COc1ccccc1[C@]1(C)ON(c2ccccc2C(F)(F)F)C1=O	5.08 kMESF (inactive)
Cc1[nH]n(-c2ncc(-c3ccccc3)s2)c(=O)c1C(c1ccc(Cl)cc1)C(C#N)C#N (centres undefined)	4.02 kMESF (inactive)
Cc1cc(O)c(C(=O)/C=C/c2c(F)c(F)c(F)c(F)c2F)c(=O)o1	0.99 kMESF (inactive)
CS(=O)(=O)N1N=C(c2ccccc2)CC1c1ccc2c(c1)OCO2 (centres undefined)	78.8 kMESF (inactive)
COc1cc(/C=C2\C(=O)N(CCC#N)N=C2C)c(Br)cc1OC(C)C	4.57 kMESF (inactive)
COC(=O)CCS(=O)(=O)c1nc(-c2ccccc2)cc(C(F)(F)F)n1	6.95 kMESF (inactive)
CCN1/C(=C/C=C/c2sc3ccccc3[n+]2CC)Sc2ccccc21	105 kMESF (inactive)
O=c1[nH]c(-c2ccc(Cl)cc2)cs1	1.62 kMESF (inactive)
CC(Oc1ccc(Cl)cc1)C(=O)NNC(=S)NC(=O)c1ccco1 (centres undefined)	5.05 kMESF (inactive)
COc1cccc(/C=N/Nc2ccc([N+](=O)[O-])cn2)c1O	3.24 kMESF (inactive)
Cc1cccc(C)c1NC(=O)C(Cl)C(=O)c1ccccc1 (centres undefined)	4.47 kMESF (inactive)
O=C(Nc1ccccc1)ON=C1CCCC1	2.76 kMESF (inactive)
O=C(/C=C/c1ccc(F)cc1)NC(=S)NNC(=O)c1cnccn1	4.9 kMESF (inactive)
On1ccccc1=S	3.58 kMESF (inactive)

Structure (SMILES)	GFP fluorescence (kMESF), higher = increase
CCOC(=O)CCS(=O)(=O)c1nc(-c2ccccc2)cc(C(F)(F)F)n1	7.24 kMESF (inactive)
O/C=c1\ccc2cccc3nc(C(F)(F)F)nc1c23	14.3 kMESF (inactive)
COc1cccc2sc(Nc3nc(-c4ccccn4)cs3)nc12	5.3 kMESF (inactive)
O=C(O)c1cccc(S(=O)(=O)Nc2ccc(S(=O)(=O)N3CCOCC3)cc2)c1	2.77 kMESF (inactive)
Oc1ccc(CNc2ccccc2)c2cccnc12	3.28 kMESF (inactive)
CCC1(c2ccccc2)ON(c2c(Br)cccc2Br)C1=O (centres undefined)	3.17 kMESF (inactive)
CC(=O)Oc1ccc(/C=c2\sc3ncnn3c2=O)cc1	3.91 kMESF (inactive)
ClC(Cl)(c1nnnn1-c1ccccc1)c1nnnn1-c1ccccc1	4.4 kMESF (inactive)
CCOc1ccc(NC2=C(Cl)C(=O)N(Cc3ccccc3)C2=O)cc1	3.61 kMESF (inactive)
O=C(CCc1ccccc1)NNC(=S)NC(=O)c1ccccc1	5.56 kMESF (inactive)
C/C(=N/NC(=O)c1ccc(C(C)(C)C)cc1)c1ccccn1	5.35 kMESF (inactive)
CC(C)(C)n1nc(-c2ccc(Cl)cc2)c2c(N)ncnc21	6.05 kMESF (inactive)
O=[N+]([O-])c1cc(Cl)cc(/C=N\Nc2ccccn2)c1O	4.91 kMESF (inactive)
O=[N+]([O-])c1cnc(Sc2ccncn2)s1	3.07 kMESF (inactive)
Cc1c(C)c2ccc(Oc3ccc([N+](=O)[O-])cc3C(F)(F)F)c(C)c2oc1=O	2 kMESF (inactive)
COc1cc(/C=C/[N+](=O)[O-])ccc1O	3.88 kMESF (inactive)
Nc1nc(N)c2nc(CNc3ccc(C(=O)NC(CCC(=O)O)C(=O)O)cc3)cnc2n1 (centres undefined)	1.62 kMESF (inactive)
CCn1c(=O)c(C(=O)Nc2nc3ccccc3[nH]2)c(O)c2ccccc21	2.38 kMESF (inactive)
CC(=O)OC[C@]12CC[C@H]3[C@@](C)(CC[C@H]4C(C)(C)CCC[C@]34C)[C@@H]1C[C@H](C1=CC(=O)O[C@@H]1OC(C)=O)O2	1.79 kMESF (inactive)
CC(C)C(=O)NC(c1cccs1)c1cc([N+](=O)[O-])c2cccnc2c1O (centres undefined)	3.41 kMESF (inactive)
O=c1oc(/C=C/c2ccc([N+](=O)[O-])s2)nc2ccccc12	5.31 kMESF (inactive)
